“And” between values parts separate entries of the source, which are not always exact repeats. Equal values may be shown once.
Key:
PC12 cells [1] = assay: Cell death quantification PC12 (Annexin V Alexa Fluor 568); assay type: cell-based, Rat
Description: Apoptosis Indicator. The apoptosis indicator Annexin V Alexa Fluor 568 was stored in a solution containing 25 mM HEPES, 140 mM NaCl, 1 mM EDTA, pH 7.4, plus 0.1% bovine serum albumin (BSA). A 10 μL of stock Annexin V Alexa Fluor 568 was diluted in 2 mL of binding buffer. The binding buffer consisted of: 10 mM HEPES, 140 mM NaCl, and 2.5 mM CaCl2, at a pH of 7.4.
(§1) Cell Death Quantification PC12. One hour after the UV flash paradigm to induce intracellular acidosis, the cells were lightly washed and the media was replaced with the phosphatidylserine indicator Annexin V Alexa Fluor 568. This solution was made using 10 μL of the stock solution and diluted in 2 ml of rat aCSF. Fifteen minutes was allowed for membrane binding, then fluorescence was monitored for the next hour or until all cells were expressing apoptosis.
Control Experiments. Controls in each experiment were performed by moving 10 mm or more away from the UV or 980 nm exposed region. Recordings of pHi were performed to detect if NBA or the nanoparticle affected the cell or inadvertently uncaged hydrogens in the periphery of the plate. Detection of apoptosis and/or blebs was performed using Annexin V Alexa Fluor 568 and DCFDA optical recording. Control experiments were performed in the following conditions: UV alone, time alone, and NBA alone. Each one of the control experiments was performed for a minimum of 3 hours.

MDA-MB-231 cells [2] = assay: Optical recording of pHi (DCFDA) in MDA-MB-231 cells before/after UV flash photolysis of NBA; assay type: cell-based, human
Description: (§2) Optical Recording of pHi MDA-MB-231. DCFDA stock solution was diluted to a concentration of 10 μM in a 3 mL rat aCSF solution. MBA-MD-231 cells were flashed every 30 seconds at 495/440 nm for a duration of 900/700 ms, respectively, at 40× magnification and 2 seconds at each wavelength under the 10× magnification. […] Optical recording of pHi was monitored for a minimum of 10 minutes to represent a steady state.
(§3) NBA Load for Focal Acidification of MDA-MB231. Seventy-five μL of NBA stock solution was mixed in 3 mL of rat aCSF and bath applied to MDA-MB-231 cells for 10 minutes. After bath application, cells were washed a minimum of three times with rat aCSF. MDA-MB-231 cells were exposed to 60-30-60 UV light paradigm. After each exposure, pH was monitored for 2 minutes to quantify pH, acidification.

rat ventricular myocytes = conditions: NBA 1 mM, absence of UV exposure; cited from earlier work
PC12 cells [3] = assay: Optical recording of pHi (DCFDA) in PC12 cells before/after UV flash photolysis of NBA; assay type: cell-based, Rat
Description: Calibrating and Measuring pH with DCFDA. For ratiometric pH, measurements, PC12 cells were loaded with the pH-sensitive dye Carboxy-DCFDA (10 μM in rat aCSF). Nigericin was titrated to a pH of 2.0, 4.0, 5.0, 6.0, 7.0 or 8.0. The emitted fluorescence of DCFDA was recorded from cells at each of the titrated pH solutions. […] Each ratio from individual cells (n=421) was recorded for each pH. A curve of best fit was created (R^2=93.02) and used for the conversion of fluorescence to pHi.
Optic Recording of pHi PC12. DCFDA stock solution was diluted to a concentration of 10 μM in a 3 mL rat aCSF solution. PC12 cells were flashed every 30 second at 495/440 nm for a duration of 900/700 ms, respectively, at 40× magnification and 2 seconds at each wavelength under the 10× magnification. Cells were washed three times with rat aCSF after 10 minutes and prior to recording fluorescence to monitor steady state.
as §3, with “Loading” for “Load”, “PC12.” for “MDA-MB231.”, “PC12” for “MDA-MB-231”, “to” for “to 60-30-60”, “using various flash paradigms.” for “paradigm.”
In our experiments PC12 cells were loaded with the ratiometric fluorescent dye DCFDA. DCFDA was utilized for measuring changes in the intracellular pH (pHi) of a cell over a broad pH range from 2.0 to 7.0 (FIG. 3A, 3B). In this embodiment of the invention, NBA (1 mM) was bath applied at room temperature to PC12 cells and allowed to passively diffuse across the cell membrane. Emitted fluorescence ratios were taken prior to photoactivation of NBA with a flash photolysis paradigm (FIG. 15). Emitted fluorescence ratios were also recorded after NBA was exposed to a wavelength of 350 nm UV light. Using fluorescence microscopy, we can optically record and quantify changes in pHi.

MCF-7 cells [4] = assay: Cell death quantification MCF-7 (blebbing and/or Annexin V); assay type: cell-based, human
Description: Apoptosis Indicator. The apoptosis indicator Annexin V Alexa Fluor 568 was stored in a solution containing 25 mM HEPES, 140 mM NaCl, 1 mM EDTA, pH 7.4, plus 0.1% bovine serum albumin (BSA). A 10 μL of stock Annexin V Alexa Fluor 568 was diluted in 2 mL of binding buffer. The binding buffer consisted of: 10 mM HEPES, 140 mM NaCl, and 2.5 mM CaCl2, at a pH of 7.4. Cell Death Quantification MCF-7. After UV flash paradigm, the presences of blebs were observed and recordings of the pH in the intrablebular inflationary space (pHb) were acquired using the DCFDA fluorescence as they expanded. […] We quantified blebs as cellular death based on previously published findings which described blebbing as an irreversible death process (Andrade et al., Biology of the Cell, 2010, 102(1):25-35). Control Experiments. Controls in each experiment were performed by moving 10 mm or more away from the UV or 980 nm exposed region. Recordings of pHi were performed to detect if NBA or the nanoparticle affected the cell or inadvertently uncaged hydrogens in the periphery of the plate. Detection of apoptosis and/or blebs was performed using Annexin V Alexa Fluor 568 and DCFDA optical recording. Control experiments were performed in the following conditions: UV alone, time alone, and NBA alone. Each one of the control experiments was performed for a minimum of 3 hours.

[5] = test system: in vitro tadpole brainstem; conditions: 10 μM NBA, entire in vitro tadpole brainstem; cited from earlier work
MCF-7 cells [6] = assay: Optical recording of pHi (DCFDA) in MCF-7 cells before/after UV flash photolysis of NBA; assay type: cell-based, human
Description: as §2, with “pH, MCF-7.” for “pHi MDA-MB-231.”, “MCF-7” for “MBA-MD-231”
as §3, with “MCF-7.” for “MDA-MB231.”, “MCF-7” for “MDA-MB-231”, “pHi” for “pH,”

MDA-MB-231 tumors [7] = assay: Survival of nude mice with MDA-MB-231 tumors after one-time NBA phototherapy; assay type: in vivo
Description: The described inventive technique is effective in increasing the duration of survival in animals with cancer in vivo. […] NBA was injected into the established triple negative breast cancer MDA-MB-231 tumors of 6 week old nude mice. One hour was permitted to allow adequate diffusion of the NBA into the intracellular space of the cancer cells. Following this one-hour diffusion period, the tumors were exposed to 405 nm photo-activating light (85 mW) for a 60-30-60 excitation paradigm (described previously).
Following their one-time treatment of either NBA with photo-activation or control aCSF, mice were monitored and euthanized in accordance with the Humane Endpoints approved by the University of Texas at San Antonio Institutional Animal Care and Use Committee (IACUC). The control aCSF treated mice (n=4) survived for an average of 16.5±1.66 days from the day of treatment, with survival days from treatment ranging from 14 to 19 days. In contrast, the one-time NBA treated mice survived for 35.2±5.70 days from the day of treatment (FIG. 22). The NBA treated mice survival ranged from 18 to 50 days from treatment.

MDA-MB-231 tumors [8] = assay: Tumor growth of MDA-MB-231-GFP tumors in nude mice after one-time NBA phototherapy; assay type: in vivo; conditions: one-time 0.1 ml 1 mM NBA into tumor + 405 nm 60-30-60 illumination, P<0.05
Description: We injected the aggressive triple negative breast cancer MDA-MB-231-GFP (2×10^6 cells) into the mammary fat pad of 5 week old female nude mice. Tumors appeared after approximately one week following injection. Treatment was initiated once the tumors reached and maintained a length of 5 mm for two consecutive days. The mice received a one-time treatment of either a control injection if 0.1 ml of aCSF to the tumor or 0.1 ml of NBA (1 mM) followed by photoactivation. The NBA/photoactivation treatment was conducted as follows: one hour after NBA injection, the animal was anesthetized (1.5-4% isoflurane) prior to the insertion of a 200 μm fiber optic cannula into the tumor mass. The interior of the tumor was illuminated with 405 nm light (80-85 mW) via a ceramic cannula using the same illumination paradigm which was effective in vitro, specifically 60 seconds of illumination, 60 seconds of no illumination, 30 seconds of illumination, 60 seconds of no illumination, and 60 seconds of illumination. This paradigm is referred to as a “60-30-60” illumination paradigm.
Tumors were measured daily in order to calculate changes in tumor volume using the formula: Tumor Volume(TV)=[…]
The percent change in tumor volume was calculated by normalizing the percent change to the tumor volume recorded on the day of treatment. […]

MDA-MB-231 cells [9] = assay: Cell death quantification MDA-MB-231 (blebbing and/or Annexin V); assay type: cell-based, human; conditions: in less than three hours following NBA flash photolysis
Description: as §1, with “MDA-MB-231.” for “PC12.”, “apoptosis. As with MCF-7 cells, we quantified blebs as cellular death based on previously published findings which described blebbing as an irreversible death process (Andrade et al., Biology of the Cell, 2010, 102(1):25-35).” for “apoptosis.”

O=Cc1ccccc1[N+](=O)[O-] [NBA, 2-nitrobenzaldehyde]
Average apoptosis (PC12 cells [1]; NBA + UV flash photolysis): 84.0±1.33% | Percentage of cells exhibiting apoptosis, NBA alone (PC12 cells [1]; NBA alone, no UV (n=47)): 2.1% | Mean pHi before flash paradigm (MDA-MB-231 cells [2]; MDA-MB-231 cells (n=38), loaded with NBA, before 60-30-60 UV flash): 6.47±0.06 | Mean Δ pHi (MDA-MB-231 cells [2]; MDA-MB-231 cells, NBA, 60-30-60 UV flash): 3.68±0.18 pH units | Mean pHi after flash paradigm (MDA-MB-231 cells [2]; MDA-MB-231 cells, NBA, after 60-30-60 UV flash): 2.78±0.23 | Effect on diastolic Ca2+, cellular contraction, spatial pHi regulation (rat ventricular myocytes): did not alter | Average pHi drop, first flash (PC12 cells [3]; PC12 cells (n=22), 60-30-60 UV flash paradigm, flash 1): 0.72 | Average pHi drop, second flash (PC12 cells [3]; PC12 cells (n=22), 60-30-60 UV flash paradigm, flash 2): 0.36 | Average pHi drop, third flash (PC12 cells [3]; PC12 cells (n=22), 60-30-60 UV flash paradigm, flash 3): 0.36 | Mean pHi before flash photolysis (PC12 cells [3]; PC12 cells, 1 mM NBA, 10 μM DCFDA, after NBA application and prior to photolysis): 7.55±0.025 and 7.55 | Mean pHi after flash photolysis (PC12 cells [3]; PC12 cells, 1 mM NBA, after 350 nm UV exposure): 6.37±0.03 and 6.37 | Mean change in pHi (Δ pHi) (PC12 cells [3]; PC12 cells, 1 mM NBA, flash photolysis): 1.18 pH units | Percentage of apoptosis, NBA only (MCF-7 cells [4]; MCF-7 cells exposed only to NBA, no UV): 2.3% | Percentage of death within 2 hours (MCF-7 cells [4]; MCF-7 cells incubated in NBA and exposed to UV, within 2 hours): above 90% | Average apoptosis over time (MCF-7 cells [4]; MCF-7 cells, 1 mM NBA + 60-30-60 UV flash): 98.3±0.3% | Effect on spontaneous fictive respiratory motor output and central respiratory chemoreceptor responses [5]: no disruption | Average pHi drop, first flash (MCF-7 cells [6]; MCF-7 cells (n=13), 60-30-60 UV flash paradigm, flash 1): 0.68 | Average pHi drop, second flash (MCF-7 cells [6]; MCF-7 cells (n=13), 60-30-60 UV flash paradigm, flash 2): 0.35 | Average pHi drop, third flash (MCF-7 cells [6]; MCF-7 cells (n=13), 60-30-60 UV flash paradigm, flash 3): 0.59 | Mean pHi before flash photolysis (MCF-7 cells [6]; MCF-7 cells, 1 mM NBA, 10 μM DCFDA, before 60-30-60 UV flash paradigm): 7.38±0.13 and 7.38 | Mean pHi after flash photolysis (MCF-7 cells [6]; MCF-7 cells, 1 mM NBA, after 60-30-60 UV flash paradigm): 6.22±0.15 and 6.22 | Mean survival from the day of treatment (MDA-MB-231 tumors [7]; one-time NBA + 405 nm (85 mW) 60-30-60 photo-activation, nude mice): 35.2 ± 5.70 days | Increase in survivability vs control aCSF (MDA-MB-231 tumors [7]; one-time NBA photo-activation vs aCSF control, P=0.012): 113.3% | Duration of significant reduction in tumor volume vs aCSF control (MDA-MB-231 tumors [8]): up to 13 days | Cell death (MDA-MB-231 cells [9]): 55.3%

From patent US10946096B2, “Nitrobenzaldehyde proton release for manipulation of cellular acidosis” (priority 2014, dated 2021)
